# Data: patent US20050250837A1, “Use of C-Raf inhibitors for the treatment of neurodegenerative diseases” (priority 2002, published 2005)
# Assays:
# c-fms = c-fms (Homo sapiens, UniProt P07333); details: Lackey et al., 2000; cited from earlier work
# [1] = system: cerebellar granule neurons; experiment: Apoptosis of neurons infected with adenoviral dominant-negative Akt; format: cell-based, rat; details: LK + 1 uM GW5074 or 25 ng/ml IGF-1
# Description: Five day old neuronal cultures were infected with adenoviral vectors expressing either GFP or hemagluttinin (HA)-tagged dominant-negative Akt. […] Infected neurons were detected by positive staining for GFP or HA by immunocytochemistry. The proportion of apoptotic cells (condensed or fragmented nuclei) as a percentage of total infected neurons was quantified following DAPI-staining.
# DnAkt and control recombinant adenovirus expressing green fluorescent protein (Ad-GFP) are propagated in HEK293T cells and purified by cesium chloride density gradient centrifugation. After quantification of titer, virus at an MOI of 10 are used to infect granule neuron cultures 5 days after plating by direct addition to the medium. Treatments are performed 24 hours after addition of virus.
# C-Raf = biological target: T1, C-Raf (Rattus norvegicus, UniProt P11345); experiment: C-Raf Ser259 phosphorylation in neuronal cultures, Western blot; format: cell-based; details: LK + 1 uM GW5074, 0-30 min
# T1 construct: Activities of endogenous C-Raf and B-Raf activity was assayed by measuring the ability of kinase immunoprecipitated from neuronal lysates; endogenous in cells; host or cells: primary rat cerebellar granule neurons
# Description: The cultures were lysed and the lysate subjected to Western blot analysis using a phopho-Ser259-specific antibody.
# For whole-cell lysates, the culture medium was discarded, the neurons washed twice with ice-cold phosphate-buffered saline (PBS), and lysed in lysis buffer (1% Triton, 20 mM Tris-HCl (pH 7.5), 150 mM NaCl, 1 mM Na2EDTA, 1 mM EGTA, 2.5 mM sodium pyrophosphate, 1 mM beta-glycerophosphate, 1 mM Na3VO4, 1 μg/ml leupeptin and 1× protease inhibitor mixture). Protein concentrations were measured using a Bradford protein assay kit (Bio-Rad), and equivalent amounts of protein were mixed with 6×SDS-PAGE sample buffer. Following heating at 95° C. for 5 min, proteins were subjected to SDS-polyacrylamide gel electrophoresis and transferred electrophoretically to polyvinylidene difluoride membrane (PVDF; Bio Rad). After staining with Ponceau S to verify uniformity of protein loads/transfer, the membranes were analyzed for immunoreactivity. Incubation with primary antibodies was performed overnight at 4° C. and with secondary antibodies for 1 h at room temperature. Immunoreactivity was developed by enhanced chemiluminescence (ECL; Amersham) and visualized by autoradiography. All antibodies were from Cell Signaling.
# cdk2 = cdk2 (Homo sapiens, UniProt P24941); details: Lackey et al., 2000; cited from earlier work
# cdk1 = cdk1 (Homo sapiens, UniProt P06493); details: Lackey et al., 2000; cited from earlier work
# mice = experiment: 3-Nitropropionic acid (3-NP) model of Huntington's disease, striatal lesions; format: in vivo; details: GW5074 5 mg/kg body weight intraperitoneally
# Description: 3-Nitropropionic acid (3-NP) administration in rodents and nonhuman primates has served as a useful experimental model for HD (reviewed in Brouillet et al., 1999). 3-NP is an irreversible inhibitor of succinate dehydrogenase (SDH; Complex II), which causes prolonged mitochondrial energy impairment and replicates most of the clinical and pathophysiological hallmarks of HD including selective striatal degeneration, spontaneous choreiform and dystonic movements (Brouillet et al., 1999).
# Mice were purchased from Charles River (Wilmington, Mass.). 3-NP was dissolved in water and the solution brought to pH 7.4 with sodium hydroxide. 3NP was administered to 8-week old B6CBA male mice in ten intraperitoneal injections (50 mg/kg twice a day for 5 days). […] Control animals received saline injections. On the day following the 5 days of injection, mice were deeply anesthetized, intracardially perfused, brains removed, post fixed in 4% paraformaldehyde and cryoprotected. Coronal sections were cut on a cryostat at 50 micron and stained for Nissl substance (cresyl violet).
# [2] = system: cerebellar granule neurons; experiment: Methylmercury-induced cell death in cerebellar granule neurons; format: cell-based, rat; details: HK + 0.5 uM methylmercury, different concentrations of GW5074, 24 hours
# c-fms, sequence (P07333 20-972): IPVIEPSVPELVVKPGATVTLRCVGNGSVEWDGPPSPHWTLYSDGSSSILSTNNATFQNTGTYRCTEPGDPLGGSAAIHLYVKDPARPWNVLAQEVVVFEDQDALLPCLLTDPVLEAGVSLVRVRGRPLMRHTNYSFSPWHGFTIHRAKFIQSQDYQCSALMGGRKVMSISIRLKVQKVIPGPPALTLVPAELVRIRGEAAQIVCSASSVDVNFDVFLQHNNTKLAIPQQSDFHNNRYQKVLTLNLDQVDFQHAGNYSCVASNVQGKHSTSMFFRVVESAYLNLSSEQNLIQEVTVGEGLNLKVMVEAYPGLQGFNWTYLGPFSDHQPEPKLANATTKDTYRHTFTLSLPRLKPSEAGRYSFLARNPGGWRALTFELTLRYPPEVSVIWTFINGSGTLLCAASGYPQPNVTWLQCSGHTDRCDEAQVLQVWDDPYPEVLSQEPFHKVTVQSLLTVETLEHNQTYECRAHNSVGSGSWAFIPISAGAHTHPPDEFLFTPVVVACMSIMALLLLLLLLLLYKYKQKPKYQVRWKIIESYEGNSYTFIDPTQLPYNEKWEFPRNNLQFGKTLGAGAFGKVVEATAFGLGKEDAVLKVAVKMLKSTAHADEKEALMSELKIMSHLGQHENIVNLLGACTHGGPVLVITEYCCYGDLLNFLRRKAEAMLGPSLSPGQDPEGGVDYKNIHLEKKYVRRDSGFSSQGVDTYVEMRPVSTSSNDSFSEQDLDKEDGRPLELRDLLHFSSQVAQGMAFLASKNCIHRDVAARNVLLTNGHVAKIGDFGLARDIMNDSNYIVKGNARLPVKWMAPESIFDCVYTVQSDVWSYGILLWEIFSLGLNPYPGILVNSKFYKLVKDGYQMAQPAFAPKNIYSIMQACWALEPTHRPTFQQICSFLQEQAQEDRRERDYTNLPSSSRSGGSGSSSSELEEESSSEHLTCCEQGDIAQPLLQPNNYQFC
# cdk1, sequence (P06493 whole entry, species assumed): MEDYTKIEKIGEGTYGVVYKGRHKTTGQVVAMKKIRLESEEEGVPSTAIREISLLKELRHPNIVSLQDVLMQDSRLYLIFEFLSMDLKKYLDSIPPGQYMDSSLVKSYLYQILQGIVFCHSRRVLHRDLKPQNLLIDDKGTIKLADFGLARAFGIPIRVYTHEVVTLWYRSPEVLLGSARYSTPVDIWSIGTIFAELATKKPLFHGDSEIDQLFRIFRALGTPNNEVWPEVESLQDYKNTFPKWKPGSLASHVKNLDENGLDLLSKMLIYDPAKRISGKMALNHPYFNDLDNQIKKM
# cdk1, sequence (P14635 whole entry partner, species assumed): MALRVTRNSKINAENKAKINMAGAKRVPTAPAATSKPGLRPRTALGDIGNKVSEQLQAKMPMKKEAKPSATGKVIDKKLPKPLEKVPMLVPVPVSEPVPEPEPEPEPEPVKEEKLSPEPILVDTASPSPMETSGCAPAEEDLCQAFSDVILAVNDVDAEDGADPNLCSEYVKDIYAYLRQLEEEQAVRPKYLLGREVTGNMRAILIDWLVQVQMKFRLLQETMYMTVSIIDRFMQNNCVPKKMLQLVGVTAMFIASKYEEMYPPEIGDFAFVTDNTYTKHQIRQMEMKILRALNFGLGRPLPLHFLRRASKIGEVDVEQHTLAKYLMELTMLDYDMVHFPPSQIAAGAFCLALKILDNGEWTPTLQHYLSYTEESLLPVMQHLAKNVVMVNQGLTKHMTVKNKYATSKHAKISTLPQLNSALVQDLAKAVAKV
# T1 sequence (P11345 whole entry): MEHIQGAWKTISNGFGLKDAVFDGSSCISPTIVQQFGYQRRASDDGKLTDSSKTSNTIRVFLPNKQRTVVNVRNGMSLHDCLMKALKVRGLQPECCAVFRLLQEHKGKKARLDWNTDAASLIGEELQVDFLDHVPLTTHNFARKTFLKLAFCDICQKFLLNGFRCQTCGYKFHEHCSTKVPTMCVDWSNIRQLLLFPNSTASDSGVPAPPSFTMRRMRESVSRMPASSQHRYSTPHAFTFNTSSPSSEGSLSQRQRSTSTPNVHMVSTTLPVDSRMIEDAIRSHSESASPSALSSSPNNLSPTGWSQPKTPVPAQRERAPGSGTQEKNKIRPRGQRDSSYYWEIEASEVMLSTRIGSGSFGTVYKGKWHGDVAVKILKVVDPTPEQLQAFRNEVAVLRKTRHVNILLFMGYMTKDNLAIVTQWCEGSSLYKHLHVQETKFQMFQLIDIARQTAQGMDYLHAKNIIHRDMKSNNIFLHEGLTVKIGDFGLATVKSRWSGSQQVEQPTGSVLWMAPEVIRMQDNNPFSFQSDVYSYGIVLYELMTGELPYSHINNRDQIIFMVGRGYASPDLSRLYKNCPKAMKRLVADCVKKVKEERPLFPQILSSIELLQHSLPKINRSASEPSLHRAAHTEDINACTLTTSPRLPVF
structure (smiles),measurement,setting,value
"O=C1Nc2ccc(I)cc2C1=Cc1cc(Br)c(O)c(Br)c1 [GW5074, 5-Iodo-3-[(3,5-dibromo-4-hydroxyphenyl)methylene]-2-indolinone]",effect on activity of c-fms,c-fms,no effect
same,effect of dominant-negative Akt on survival promotion,[1],no effect on the ability of GW5074 to maintain neuronal survival
same,phosphorylation of C-Raf at Ser259,C-Raf,rapid increase in Ser259 phosphorylation
same,effect on activity of cdk2,cdk2,no effect
same,effect on activity of cdk1,cdk1,no effect
same,3-NP-induced striatal degeneration,mice,completely prevented
same,methylmercury-induced cell death,[2],reduced methylmercury-induced cell death
